Measured values published in US20180271987A1, “Controlled Cell Delivery Vehicle and Treatment of Tumours” (The University of Nottingham, priority 2015, published 2018).

B1: heparinase III: enzyme used to deplete cell membrane GAGs (protein, UniProt Q59289 25-659, looked up)
Heparin-sulfate lyase: QSSSITRKDFDHINLEYSGLEKVNKAVAAGNYDDAAKALLAYYREKSKAREPDFSNAEKPADIRQPIDKVTREMADKALVHQFQPHKGYGYFDYGKDINWQMWPVKDNEVRWQLHRVKWWQAMALVYHATGDEKYAREWVYQYSDWARKNPLGLSQDNDKFVWRPLEVSDRVQSLPPTFSLFVNSPAFTPAFLMEFLNSYHQQADYLSTHYAEQGNHRLFEAQRNLFAGVSFPEFKDSPRWRQTGISVLNTEIKKQVYADGMQFELSPIYHVAAIDIFLKAYGSAKRVNLEKEFPQSYVQTVENMIMALISISLPDYNTPMFGDSWITDKNFRMAQFASWARVFPANQAIKYFATDGKQGKAPNFLSKALSNAGFYTFRSGWDKNATVMVLKASPPGEFHAQPDNGTFELFIKGRNFTPDAGVFVYSGDEAIMKLRNWYRQTRIHSTLTLDNQNMVITKARQNKWETGNNLDVLTYTNPSYPNLDHQRSVLFINKKYFLVIDRAIGEATGNLGVHWQLKEDSNPVFDKTKNRVYTTYRDGNNLMIQSLNADRTSLNEEEGKVSYVYNKELKRPAFVFEKPKKNAGTQNFVSIVYPYDGQKAPEISIRENKGNDFEKGKLNLTLTINGKQQLVLVP

system: NIH3t3: LSL-eGFP cells; assay: Cre recombination assay (eGFP activation); type: cell-based, mouse; details: cells pre-treated with the agent
Description: Previous studies have the avoided issues associated with direct measurement of fluorescent-tagged proteins (such as being unable to distinguish membrane, vesicle or functional cytosolic/nuclear protein) by assaying for the successful nuclear activity of Cre recombinase {Gump, 2010 #2}. This system was used to measure Cre-mediated recombination of a loxP-STOP-loxP (LSL) enhanced green fluorescent protein (eGFP) reporter gene in live NIH3t3 mouse fibroblast cells (NIH3t3: LSL-eGFP cells) as an indicator of cellular uptake (FIG. 18a). This system is rigorous as activation of green fluorescence requires exogenous Cre protein to enter the cell, undergo nuclear-translocation and excise the LSL fragment of the transgene. This must occur in live cells and be non-toxic for the subsequent expression of eGFP. […] To overcome this issue Cre proteins were delivered at limiting dilutions for a short exposure time (1 hour) and the minimum dose required to activate green fluorescence after 48 hours (FIG. 18c) was determined.
To measure Cre Recombinase activity the NIH3t3: LSL-eGFP cell line was created using the pZ/EG plasmid transfection and G-418 selection {Novak, 2000 #6}. […] 2×10^5 cells/well were plated (in 12-well plates), pre-incubated them in DMEM without serum for 1 hour and treated with Cre proteins (0-500 μg/ml) in DMEM without serum. After the Cre incubation cells were trypsinized, replated into complete media and incubated for 2 days. Cells were pre-treated with drugs for the stated time-period in DMEM without serum, were included in Cre-transduction medium and were added after replating. […] After incubations cell were trypsinized, washed, fixed in 4% PFA and % recombined cells was determined by flow cytometry. For mR-Cre-8R and P21-mR-Cre-8R comparisons concentrations of 100 μg/ml and 10 μg/ml were used, respectively and data was expressed as % maximum recombination (i.e. the % relative to the maximum recombination achieved at the stared dose of Cre).

Molecule | effect of drug or enzyme treatment on functional delivery / recombination of HETD-tagged Cre protein
N=C(N)NC(=O)c1nc(Cl)c(N)nc1N [Amiloride] | dose-dependent reduction of functional transduction into cells
methyl-β-cyclodextrin | dose-dependent inhibition of functional delivery
C[C@@H]1[C@H](O)[C@@H](C)/C=C/C=C/CC/C=C/C=C/C=C/C=C/C(O[C@H]2O[C@H](C)[C@@H](O)[C@H](N)[C@@H]2O)CC2O[C@](O)(CC(O)C(O)CCC(O)CC(O)CC(O)CC(=O)O[C@H]1C)CC(O)C2C(=O)O (stereo partly drawn) [nystatin] | dose-dependent inhibition of functional delivery
C=C1[C@@H](C)[C@H]2[C@H](Cc3ccccc3)NC(=O)[C@]23[C@H](OC(C)=O)/C=C/[C@@](C)(O)C(=O)[C@@H](C)C/C=C/[C@H]3[C@@H]1O [Cytochalasin D] | dose-dependent reduction of functional transduction into cells
B1 | reduced recombination to basal-levels

system: cells; assay: not given; details: literature; cited from earlier work

Molecule | increase of nanoparticle uptake
Arg-Gly-Asp [RGD] | 50%
